Patent US20230226062A1, “HETEROCYCLIC COMPOUNDS AS IMMUNOMODULATORS” (Incyte Corporation, priority 2016, published 2023)

Each compound was assayed against T1, PD-1/PD-L1 (Homo sapiens, UniProt Q9NZQ7) (assay: PD-1/PD-L1 Homogeneous Time-Resolved Fluorescence (HTRF) binding assay). Conditions: recombinant human PD-L1 (19-238)-His 10 nM, human PD-1 (25-167)-Fc 3 nM, 25° C., PBS pH 7.4.
T1 construct: Recombinant human PD-L1 protein (19-238) with a His-tag at the C-terminus; purchased AcroBiosystems PD1-H5229 (PD-L1); PD1-H5257 (PD-1)
T1 sequence (Q9NZQ7 19-238): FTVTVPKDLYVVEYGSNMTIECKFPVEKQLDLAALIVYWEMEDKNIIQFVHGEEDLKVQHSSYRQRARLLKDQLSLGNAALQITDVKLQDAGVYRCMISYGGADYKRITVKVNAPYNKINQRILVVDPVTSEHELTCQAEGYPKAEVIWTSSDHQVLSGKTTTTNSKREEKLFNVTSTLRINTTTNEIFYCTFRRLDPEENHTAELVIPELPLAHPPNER
Method: Example A. PD-1/PD-L1 Homogeneous Time-Resolved Fluorescence (HTRF) Binding Assay
The assays were conducted in a standard black 384-well polystyrene plate with a final volume of 20 μL. Inhibitors were first serially diluted in DMSO and then added to the plate wells before the addition of other reaction components. The final concentration of DMSO in the assay was 1%. The assays were carried out at 25° C. in the PBS buffer (pH 7.4) with 0.05% Tween-20 and 0.1% BSA. Recombinant human PD-L1 protein (19-238) with a His-tag at the C-terminus was purchased from AcroBiosystems (PD1-H5229). Recombinant human PD-1 protein (25-167) with Fc tag at the C-terminus was also purchased from AcroBiosystems (PD1-H5257). PD-L1 and PD-1 proteins were diluted in the assay buffer and 10 μL was added to the plate well. Plates were centrifuged and proteins were preincubated with inhibitors for 40 minutes. The incubation was followed by the addition of 10 μL of HTRF detection buffer supplemented with Europium cryptate-labeled anti-human IgG (PerkinElmer-AD0212) specific for Fc and anti-His antibody conjugated to SureLight®-Allophycocyanin (APC, PerkinElmer-AD0059H). After centrifugation, the plate was incubated at 25° C. for 60 min. before reading on a PHERAstar FS plate reader (665 nm/620 nm ratio). Final concentrations in the assay were—3 nM PD1, 10 nM PD-L1, 1 nM europium anti-human IgG and 20 nM anti-His-Allophycocyanin. IC50 determination was performed by fitting the curve of percent control activity versus the log of the inhibitor concentration using the GraphPad Prism 5.0 software.
For `Cc1c(/C=C/c2ccc(CN3CCCC[C@@H]3C(=O)O)cn2)cccc1-c1ccccc1` [Example 8, (R,E)-1-((6-(2-(2-methyl-[1,1′-biphenyl]-3-yl)vinyl)pyridin-3-yl)methyl)piperidine-2-carboxylic acid], the IC50 was 10 to 100 nM.
With `Cc1c(-c2ccccc2)cccc1-c1cnc2c(c1)CNC2` [Example 17, 3-(2-methylbiphenyl-3-yl)-6,7-dihydro-5H-pyrrolo[3,4-b]pyridine] the IC50 was 100 to 1000 nM.
In the case of `Cc1c(-c2ccccc2)cccc1N1CCC[C@@H](N)C1` [Example 26, (R)-1-(2-methylbiphenyl-3-yl)piperidin-3-amine], the IC50 is reported as 100 to 1000 nM.
With `O=C(Nc1ccc2cnc(-c3ccccc3)cc2c1Cl)c1ccc(CNCCO)cn1` [Example 12, N-(5-chloro-3-phenylisoquinolin-6-yl)-5-((2-hydroxyethylamino)methyl) picolinamide] the IC50 was 100 to 1000 nM.
In the case of `Cc1c(-c2ccccc2)cccc1-c1ccc2c(c1)CNC2` [Example 5, 5-(2-methylbiphenyl-3-yl)isoindoline], the IC50 is reported as 10 to 100 nM.
Compound `CCN(C)CC(=O)N1Cc2nc(-c3cccc(-c4cccc(N5CCC6NCCC6C5)c4C)c3C)sc2C1` (centres unmarked) [Example 37, 1-(2-(2,2′-dimethyl-3′-(tetrahydro-1H-pyrrolo[3,2-c]pyridin-5(6H,7H,7aH)-yl)biphenyl-3-yl)-4H-pyrrolo[3,4-d]thiazol-5(6H)-yl)-2-(ethyl(methyl)amino)ethanone] has an IC50 of 100 to 1000 nM.
Compound `NCc1ccc(-c2cccc(-c3ccccc3)c2Cl)cn1` [Example 6, (5-(2-chlorobiphenyl-3-yl)pyridin-2-yl)methanamine] has an IC50 of 10 to 100 nM.
With `Cc1c(-c2nc3c(s2)CN(C(=O)CN(C)C)C3)cccc1-c1cccc(-c2nc3c(s2)CN(C(=O)CN2CC[C@@H](O)C2)C3)c1C` [Example 35, (R)-2-(dimethylamino)-1-(2-(3′-(5-(2-(3-hydroxypyrrolidin-1-yl)acetyl)-5,6-dihydro-4H-pyrrolo[3,4-d]thiazol-2-yl)-2,2′-dimethylbiphenyl-3-yl)-4H-pyrrolo[3,4-d]thiazol-5(6H)-yl)ethanone] the IC50 was at most 10 nM.
For `Cc1c(Nc2nsc3nccnc23)cccc1-c1ccccc1` [Example 25, N-(2-methylbiphenyl-3-yl)isothiazolo[4,5-b]pyrazin-3-amine], the IC50 was 100 to 1000 nM.
Compound `OCCNCc1ccc(CN2CCc3c(-c4ccccc4)cccc32)c(Cl)c1` [Example 40, 2-({3-chloro-4-[(4-phenyl-2,3-dihydro-1H-indol-1-yl)methyl]benzyl}amino)ethanol] has an IC50 of 100 to 1000 nM.
Compound `Cc1c(-c2ccccc2)cccc1-c1ccc2c(c1)CCNC2` [Example 13, 6-(2-methylbiphenyl-3-yl)-1,2,3,4-tetrahydroisoquinoline] has an IC50 of 10 to 100 nM.
For `COc1cccc(-c2cccc(Nc3nccn4c(CNCCO)cnc34)c2C)c1F` [Example 9, 2-(((8-((2′-fluoro-3′-methoxy-2-methyl-[1,1′-biphenyl]-3-yl)amino)imidazo[1,2-a]pyrazin-3-yl)methyl)amino)ethan-1-ol], the IC50 was 10 to 100 nM.
Compound `Cc1c(-c2ccccc2)cccc1N1CC[C@H](CN)C1` [Example 29, (R)-(1-(2-methylbiphenyl-3-yl)pyrrolidin-3-yl)methanamine] has an IC50 of 1000 to 2000 nM.
Work on `Cc1c(-c2ccccc2)ccnc1-c1ccc(CN)cc1` [Example 21, (4-(3-methyl-4-phenylpyridin-2-yl)phenyl)methanamine] yielded an IC50 of 100 to 1000 nM.
Compound `Cc1c(-c2ccccc2)cccc1-c1ccc(CNCCO)cc1` [Example 7, 2-{[(2′-methyl-1,1′:3′,1″-terphenyl-4-yl)methyl]amino}ethanol] has an IC50 of 10 to 100 nM.
With `Cc1c(-c2ccccc2)cccc1-c1cnc2c(c1)CNCC2` [Example 20, 3-(2-methylbiphenyl-3-yl)-5,6,7,8-tetrahydro-1,6-naphthyridine] the IC50 was 100 to 1000 nM.
`Cc1c(-c2ccccc2)cccc1-c1cnn(C[C@@H]2CCCN2)c1` [Example 2, 4-(2-methylbiphenyl-3-yl)-1-[(2S)-pyrrolidin-2-ylmethyl]-1H-pyrazole] showed an IC50 of 10 to 100 nM.
Compound `CCN(C)CC(=O)N1Cc2nc(-c3cccc(-c4cccc(C#CC5CCNCC5)c4C)c3C)sc2C1` [Example 36, 1-(2-(2,2′-dimethyl-3′-(piperidin-4-ylethynyl)biphenyl-3-yl)-4H-pyrrolo[3,4-d]thiazol-5(6H)-yl)-2-(ethyl(methyl)amino)ethanone] has an IC50 of at most 10 nM.
For `Cc1c(-c2ccccc2)cccc1-c1ccc2nc(CN3CCCC[C@H]3C(=O)O)cc(C)c2c1` [Example 4, (S)-1-((4-methyl-6-(2-methylbiphenyl-3-yl)quinolin-2-yl)methyl)piperidine-2-carboxylic acid], the IC50 was 10 to 100 nM.
With `Cc1c(Oc2ncnc3c(CNCCO)csc23)cccc1-c1ccccc1` [Example 1, 2-((4-(2-methylbiphenyl-3-yloxy)thieno[3,2-d]pyrimidin-7-yl)methylamino)ethanol] the IC50 was 10 to 100 nM.
`Cc1c(-c2ccccc2)cccc1N1Cc2ccc(CNCCO)cc2C1` [Example 19, 2-((2-(2-methylbiphenyl-3-yl)isoindolin-5-yl)methylamino)ethanol] was tested, and the IC50 was 100 to 1000 nM.
With `O[C@H]1CC[C@@H](NCc2ccc(N3CCCC(c4ccccc4)C3)cn2)CC1` (stereo partly drawn) [Example 22, Cis-4-((5-(3-phenylpiperidin-1-yl)pyridin-2-yl)methylamino)cyclohexanol] the IC50 was 100 to 1000 nM.
`Cc1c(-c2ccccc2)cccc1N1CCc2cc(CNCCO)ccc2C1` [Example 14, 2-((2-(2-methylbiphenyl-3-yl)-1,2,3,4-tetrahydroisoquinolin-6-yl)methylamino)ethanol] showed an IC50 of 100 to 1000 nM.
Compound `Cc1c(NCC2CCCNC2)cccc1-c1ccccc1` (centres unmarked) [Example 28, 2-methyl-N-(piperidin-3-ylmethyl)biphenyl-3-amine] has an IC50 of 1000 to 2000 nM.
`OCC1(CNC2CCN(c3cccc(NCc4ccccc4)c3Cl)CC2)CCC1` [Example 24, (1-((1-(3-(benzylamino)-2-chlorophenyl)piperidin-4-ylamino)methyl)cyclobutyl)methanol] showed an IC50 of 100 to 1000 nM.
`OCC1(CNC2CCN(c3cccc(Nc4ccccc4)c3Cl)CC2)CCC1` [Example 23, (1-((1-(2-chloro-3-(phenylamino)phenyl)piperidin-4-ylamino)methyl)cyclobutyl)methanol] was tested, and the IC50 was 1000 to 2000 nM.
In the case of `Cc1c(NC(=O)N2CCCC(N)C2)cccc1-c1ccccc1` (centres unmarked) [Example 33, 3-amino-N-(2-methylbiphenyl-3-yl)piperidine-1-carboxamide], the IC50 is reported as 1000 to 2000 nM.
`Cc1cc(CN2CCCC[C@H]2C(=O)O)ccc1OC1CCc2c(-c3ccccc3)cccc21` (stereo partly drawn) [Example 10, (2S)-1-(3-methyl-4-(4-phenyl-2,3-dihydro-1H-inden-1-yloxy)benzyl)piperidine-2-carboxylic acid] gave an IC50 of 100 to 1000 nM.
With `CCN(C)CC(=O)N1Cc2nc(-c3cccc(-c4cccc(N5CCn6cncc6C5)c4C)c3C)sc2C1` [Example 38, 1-(2-(3′-(5,6-dihydroimidazo[1,5-a]pyrazin-7(8H)-yl)-2,2′-dimethylbiphenyl-3-yl)-4H-pyrrolo[3,4-d]thiazol-5(6H)-yl)-2-(ethyl(methyl)amino)ethanone] the IC50 was 10 to 100 nM.
`N#Cc1c(-c2ccccc2)csc1Nc1nccc2cc(CNCCO)cnc12` [Example 34, 2-[(3-{[(2-hydroxyethyl)amino]methyl}-1,7-naphthyridin-8-yl)amino]-4-phenylthiophene-3-carbonitrile] showed an IC50 of 100 to 1000 nM.
Compound `Cc1c(C2=CCC(N3CCCC3)CC2)cccc1-c1ccccc1` (centres unmarked) [Example 32, 1-(4-(2-methylbiphenyl-3-yl)cyclohex-3-enyl)pyrrolidine] has an IC50 of 100 to 1000 nM.
Work on `Cc1c(-c2ccccc2)cccc1N1CCC(CN)CC1` [Example 27, (1-(2-methylbiphenyl-3-yl)piperidin-4-yl)methanamine] yielded an IC50 of 100 to 1000 nM.
`Cc1c(NC(=O)c2cccn3c(CN4CCCC[C@H]4C(=O)O)cnc23)cccc1-c1ccccc1` [Example 11, (S)-1-((8-(2-methylbiphenyl-3-ylcarbamoyl)imidazo[1,2-a]pyridin-3-yl)methyl)piperidine-2-carboxylic acid] was tested, and the IC50 was 100 to 1000 nM.
Work on `Cc1c(-c2ccccc2)cccc1-c1ccc2c(c1)CCC(CN(C)C)O2` (centres unmarked) [Example 16, N,N-dimethyl-1-(6-(2-methylbiphenyl-3-yl)chroman-2-yl)methanamine] yielded an IC50 of 100 to 1000 nM.
`Cc1c(-c2ccccc2)cccc1N1CCC2(CCCCN2)CC1` [Example 31, 9-(2-methylbiphenyl-3-yl)-1,9-diazaspiro[5.5]undecane] showed an IC50 of 100 to 1000 nM.
Compound `Cc1c(Nc2ccc3c(c2)CCNC3)cccc1-c1ccccc1` [Example 15, N-(2-methylbiphenyl-3-yl)-1,2,3,4-tetrahydroisoquinolin-6-amine] has an IC50 of 100 to 1000 nM.
Work on `Cc1c(Nc2ccc3c(c2)CCN(C(CO)CO)C3)cccc1-c1ccccc1` [Example 18, 2-(6-(2-methylbiphenyl-3-ylamino)-3,4-dihydroisoquinolin-2(1H)-yl)propane-1,3-diol] yielded an IC50 of 100 to 1000 nM.
Work on `COc1cccc(-c2cccc(Nc3ncccc3C(=O)NCCNCCO)c2C)c1F` [Example 39, 2-(2′-fluoro-3′-methoxy-2-methylbiphenyl-3-ylamino)-N-(2-(2-hydroxyethylamino)ethyl)nicotinamide] yielded an IC50 of 100 to 1000 nM.
